Experimental data: patent US7649022B2, “Bioabsorbable elastomeric polymer networks, cross-linkers and methods of use” (priority 2007, dated 2010)

Test: Properties and self-adherence of films of PEA 4-Phe-4 mixed with EAC-2 cross-linkers, dry and after 24 h in water
Type: physicochemical
Parameters: key to Self-adherence: (—) means: no self-adherence observed
Conditions: for Self-adherence: folded film in water 24 hours; for Wet: pre-soaked in water at room temperature 24 hours; for Dry: dry film
From the text: At the first stage, this Example addresses the question of whether invention cross-linking agents can be used as plasticizers without causing the composition to undesirably adhere to the surface of other materials (for example, steel, and other medical device surfaces).

| SMILES | Self-adherence (PEA 4-Phe-4/EAC-2 40/60 w/w) | Self-adherence (PEA 4-Phe-4/EAC-2 60/40 w/w) | Wet (PEA 4-Phe-4/EAC-2 60/40 w/w) | Dry (PEA 4-Phe-4/EAC-2 80/20 w/w) | Self-adherence (PEA 4-Phe-4/EAC-2 80/20 w/w) | Dry (PEA 4-Phe-4/EAC-2 60/40 w/w) | Dry (PEA 4-Phe-4/EAC-2 40/60 w/w) |
| --- | --- | --- | --- | --- | --- | --- | --- |
| C=CC(=O)NC(CC(C)C)C(=O)OCCCCCCOC(=O)C(CC(C)C)NC(=O)C=C (stereo not shown) [Leu-6-AA] | — | — | Brittle | Hard | — |  |  |
| CC(C)CC(NC(=O)C=Cc1ccccc1)C(=O)OCCCCCCOC(=O)C(CC(C)C)NC(=O)C=Cc1ccccc1 (stereo not shown) [Leu-6-CA] | — | — |  |  | — | Elastic |  |
| O=C(C=Cc1ccccc1)NC(Cc1ccccc1)C(=O)OCCCCCCOC(=O)C(Cc1ccccc1)NC(=O)C=Cc1ccccc1 (stereo not shown) [Phe-6-CA] | — | — | Elastic | Hard | — | Brittle | Brittle |
| C=C(C)C(=O)N[C@@H](Cc1ccccc1)C(=O)OCCCCCCOC(=O)[C@H](Cc1ccccc1)NC(=O)C(=C)C [Phe-6-MA, dimethacrylate of bis(L-Phe)-1,6-hexanediol diester] | — | — | Elastic | Hard | — | Hard |  |
| C=C(C)C(=O)NC(CC(C)C)C(=O)OCCCCCCOC(=O)C(CC(C)C)NC(=O)C(=C)C (stereo not shown) [Leu-6-MA] | — | — |  |  | — |  |  |
